According to the supplement of paper PMC6580486:

What was measured:
[1] = test system: pcb-00197 (human undifferentiated pleomorphic sarcoma culture)
Procedure: (§1)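 60-agent targeted drug screens (Drug Screen V3 on epithelioid sarcoma cultures PCB490-3/4/5, PCB495, EPS cell lines ESX, VA-ES-BJ, FU-EPS-1 and SkMc myoblasts; PPTI screen v2.1 on human UPS PCB197 and canine UPS S1-12). 384-well plates, 72 h, CellTiter-Glo viability; IC50 by Hill curve fit. 10000 nM = no IC50 achieved (top reported value).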

[2] = test system: s1-12 (canine undifferentiated pleomorphic sarcoma culture)
Procedure: as §1

[3] = test system: PCB490-3 (human epithelioid sarcoma primary culture)
Procedure: (§2)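 Roche open-access kinase inhibitor screen (223 compounds) on human epithelioid sarcoma primary cultures from three spatially distinct regions of tumor PCB490. 384-well plates, 72 h, CellTiter-Glo viability; IC50 by Hill curve fit. 100000 nM = no IC50 reached. Compound ids carry a plate-well prefix, which is stripped.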

[4] = test system: PCB490-5 (human epithelioid sarcoma primary culture)
Procedure: as §2

[5] = test system: PCB490-4 (human epithelioid sarcoma primary culture)
Procedure: as §2

| Compound | IC50 cell viability [1] | IC50 cell viability [2] | IC50 cell viability [3] | IC50 cell viability [4] | IC50 cell viability [5] |
| --- | --- | --- | --- | --- | --- |
| CC(/C=C/C(=O)NO)=C\[C@@H](C)C(=O)c1ccc(N(C)C)cc1 [trichostatin] | > 10 µM | 0.87 µM |  |  |  |
| CCN(CCCOc1ccc2c(Nc3cc(CC(=O)Nc4cccc(F)c4)[nH]n3)ncnc2c1)CCOP(=O)(O)O [barasertib] | > 10 µM | > 10 µM |  |  |  |
| CC1=C(/C=C/C(C)=C/C=C/C(C)=C/C(=O)Nc2ccc(O)cc2)C(C)(C)CCC1 [Fenretinide] | > 10 µM | 1.84 µM |  |  |  |
| CC(C)C[C@H](NC(=O)[C@H](Cc1ccccc1)NC(=O)c1cnccn1)B(O)O [bortezomib] | 4.83 µM | 4.69 µM |  |  |  |
| Cn1c(=O)n(-c2ccc(C(C)(C)C#N)cc2)c2c3cc(-c4cnc5ccccc5c4)ccc3ncc21 [BEZ 235] | 0.57 µM | 0.22 µM |  |  |  |
| COc1cc2c(Oc3ccc4[nH]c(C)cc4c3F)ncnc2cc1OCCCN1CCCC1 [cediranib] | > 10 µM | > 10 µM |  |  |  |
| CN(C)c1ccccc1CN1CCCN(Cc2ccccc2N(C)C)C1c1ccncc1 [GANT61] | > 10 µM | > 10 µM |  |  |  |
| N#CC[C@H](C1CCCC1)n1cc(-c2ncnc3[nH]ccc23)cn1 [ruxolitinib] | > 10 µM | 6.93 µM |  |  |  |
| CN1CCN(CCOc2cc(OC3CCOCC3)c3c(Nc4c(Cl)ccc5c4OCO5)ncnc3c2)CC1 [Saracatinib] | > 10 µM | 1.51 µM |  |  |  |
| Cc1nc(Nc2ncc(C(=O)Nc3c(C)cccc3Cl)s2)cc(N2CCN(CCO)CC2)n1 [dasatinib] | 0.14 µM | 0.86 µM |  |  |  |
| CN(c1ncccc1CNc1nc(Nc2ccc3c(c2)CC(=O)N3)ncc1C(F)(F)F)S(C)(=O)=O | 4.56 µM | 1.42 µM |  |  |  |
| COc1cc2nccc(Oc3ccc(NC(=O)C4(C(=O)Nc5ccc(F)cc5)CC4)cc3)c2cc1OC [Cabozantinib] | > 10 µM | > 10 µM |  |  |  |
| CCN(CC)CCCC(C)Nc1c2ccc(Cl)cc2nc2ccc(OC)cc12 (centres undefined) [quinacrine] | 1.57 µM | 0.99 µM |  |  |  |
| CNC(=O)CN1CCC(Oc2cc3c(Nc4cccc(Cl)c4F)ncnc3cc2OC)CC1 [AZD-8931] | > 10 µM | > 10 µM |  |  |  |
| COc1nc(C)cnc1NS(=O)(=O)c1cccnc1-c1ccc(-c2nnco2)cc1 [zibotentan] | > 10 µM | > 10 µM |  |  |  |
| C[C@]1(c2nc3c(C(N)=O)cccc3[nH]2)CCCN1 [veliparib] | > 10 µM | > 10 µM |  |  |  |
| CCCS(=O)(=O)Nc1ccc(F)c(C(=O)c2c[nH]c3ncc(-c4ccc(Cl)cc4)cc23)c1F [vemurafenib] | > 10 µM | > 10 µM |  |  |  |
| CS(=O)(=O)c1ccc(C(=O)Nc2ccc(Cl)c(-c3ccccn3)c2)c(Cl)c1 [vismodegib] | > 10 µM | 2.75 µM |  |  |  |
| CC(C)(C)c1cnc(CSc2cnc(NC(=O)C3CCNCC3)s2)o1 [SNS-032] | 0.78 µM | 0.11 µM |  |  |  |
| NC1(c2ccc(-c3nc4ccn5c(=O)[nH]nc5c4cc3-c3ccccc3)cc2)CCC1 [MK-2206] | > 10 µM | 1.09 µM |  |  |  |

| Compound | IC50 cell viability [1] | IC50 cell viability [2] | IC50 cell viability [3] | IC50 cell viability [4] | IC50 cell viability [5] |
| --- | --- | --- | --- | --- | --- |
| CS(=O)(=O)CCNCc1ccc(-c2ccc3ncnc(Nc4ccc(OCc5cccc(F)c5)c(Cl)c4)c3c2)o1 [lapatinib] | > 10 µM | > 10 µM |  |  |  |
| COc1cc(Nc2ncc(F)c(Nc3ccc4c(n3)N(COP(=O)(O)O)C(=O)C(C)(C)O4)n2)cc(OC)c1OC [Fostamatinib] | 4.33 µM | 0.73 µM |  |  |  |
| Nc1cccc2c1CN(C1CCC(=O)NC1=O)C2=O (centres undefined) [Lenalidomide] | > 10 µM | 2.85 µM |  |  |  |
| Cc1ccc(Nc2nccc(N(C)c3ccc4c(C)n(C)nc4c3)n2)cc1S(N)(=O)=O [pazopanib] | > 10 µM | > 10 µM |  |  |  |
| COc1cc2/c(=N/c3ccc(Br)cc3F)nc[nH]c2cc1OCC1CCN(C)CC1 [Vandetanib] | 1.32 µM | 1.24 µM |  |  |  |
| COc1cc(Nc2ncc3c(n2)-c2ccc(Cl)cc2C(c2c(F)cccc2OC)=NC3)ccc1C(=O)O [MLN8237] | 2.74 µM | 0.98 µM |  |  |  |
| Cc1ccc(C(=O)Nc2ccc(CN3CCN(C)CC3)c(C(F)(F)F)c2)cc1C#Cc1cnc2cccnn12 [ponatinib] | 4.43 µM | 0.16 µM |  |  |  |
| Cc1cc(Nc2cc(N3CCN(C)CC3)nc(Sc3ccc(NC(=O)C4CC4)cc3)n2)n[nH]1 [tozasertib] | > 10 µM | > 10 µM |  |  |  |
| Cc1cn(-c2cc(NC(=O)c3ccc(C)c(Nc4nccc(-c5cccnc5)n4)c3)cc(C(F)(F)F)c2)cn1 [Nilotinib] | > 10 µM | > 10 µM |  |  |  |
| Cn1cnc2c(F)c(Nc3ccc(Br)cc3Cl)c(C(=O)NOCCO)cc21 [selumetinib] | > 10 µM | 1.55 µM |  |  |  |
| C[C@@H](Oc1cc(-c2cnn(C3CCNCC3)c2)cnc1N)c1c(Cl)ccc(F)c1Cl [crizotinib] | 1.53 µM | 1.18 µM |  |  |  |
| CNC(=O)c1cc(Oc2ccc(NC(=O)Nc3ccc(Cl)c(C(F)(F)F)c3)cc2)ccn1 [sorafenib] | > 10 µM | 6.43 µM |  |  |  |
| N#Cc1ccc(COC[C@H]2O[C@@H](n3c(NCc4ccc(Cl)c(Cl)c4)nc4c(N)ncnc43)[C@H](O)[C@@H]2O)cc1 | > 10 µM | > 10 µM |  |  |  |
| COC1=CC(c2cc3ccccc3[nH]2)=N/C1=C\c1[nH]c(C)cc1C [obatoclax] | 0.21 µM | 0.04 µM |  |  |  |
| Oc1c2ccccc2c2c3c(cccc13)N=N2 | > 10 µM | 1.36 µM |  |  |  |
| CC1=C(/C=C/C(C)=C/C=C/C(C)=C/C(=O)O)C(C)(C)CCC1 [retinoic acid] | > 10 µM | 2.04 µM |  |  |  |
| CC(C)C[C@H](NC(=O)[C@H](CCc1ccccc1)NC(=O)CN1CCOCC1)C(=O)N[C@@H](Cc1ccccc1)C(=O)N[C@@H](CC(C)C)C(=O)[C@@]1(C)CO1 [carfilzomib] | 0.47 µM | 0.99 µM |  |  |  |
| CN1CC[C@H](c2c(O)cc(O)c3c(=O)cc(-c4ccccc4Cl)oc23)[C@H](O)C1 [Alvocidib] | 0.26 µM | 0.01 µM |  |  |  |
| Cn1c(=O)c(Oc2cccc(F)c2)cc2cnc(NC3CCOCC3)nc21 |  |  | > 100 µM | > 100 µM | > 100 µM |
| CN1CCN(c2ccc(Nc3nc(N)c(C(=O)c4ccc5c(c4)OCCO5)s3)cc2)CC1 |  |  | > 100 µM | > 100 µM | > 100 µM |

| Compound | IC50 cell viability [1] | IC50 cell viability [2] | IC50 cell viability [3] | IC50 cell viability [4] | IC50 cell viability [5] |
| --- | --- | --- | --- | --- | --- |
| O=C1NC(=NCCc2cccs2)S/C1=C\c1ccc2ncccc2c1 |  |  | > 100 µM | > 100 µM | > 100 µM |
| Cc1[nH]nc2c1N=C(c1ccccc1F)c1cc(C#N)ccc1N2 |  |  | > 100 µM | > 100 µM | > 100 µM |
| O=C1OC(=O)C(c2c[nH]c3ccccc23)=C1c1c[nH]c2ccccc12 |  |  | > 100 µM | > 100 µM | > 100 µM |
| O=C1NC(=O)/C(=C/c2ccc3ncccc3c2)S1 |  |  | > 100 µM | > 100 µM | > 100 µM |
| CSc1c(C2=C(c3cn(C)c4ccccc34)C(=O)NC2=O)c2ccccc2n1C |  |  | > 100 µM | > 100 µM | > 100 µM |
| Cn1c(=O)c(Oc2ccc(F)cc2F)cc2cnc(NC(CO)CO)nc21 |  |  | > 100 µM | 8.58 µM | 15 µM |
| Cn1cc(C2=C(c3c4n(c5ccccc35)CCCC4)C(=O)NC2=O)c2ccccc21 |  |  | > 100 µM | > 100 µM | > 100 µM |
| Nc1c(C(=O)c2cccc(-c3cccnc3)c2)cnn1-c1ccc(F)cc1F |  |  | > 100 µM | > 100 µM | > 100 µM |
| Cc1cc(C)c2c(n1)sc1c(N)ncnc12 |  |  | > 100 µM | > 100 µM | > 100 µM |
| Cn1cc(C2=C(c3c4n(c5ccccc35)CCNC4)C(=O)NC2=O)c2ccccc21 |  |  | > 100 µM | > 100 µM | > 100 µM |
| CS(=O)(=O)CCCn1c(=O)c(Oc2ccc(F)cc2F)cc2cnc(NC3CCOCC3)nc21 |  |  | > 100 µM | > 100 µM | > 100 µM |
| Cn1cc(C2=C(c3cn(-c4ccccc4)c4ccccc34)C(=O)NC2=O)c2ccccc21 |  |  | > 100 µM | > 100 µM | > 100 µM |
| COc1ccc(C2=C(c3cn(C)c4ccccc34)C(=O)NC2=O)cc1 |  |  | > 100 µM | > 100 µM | > 100 µM |
| COc1ccccc1C(=O)c1cnc(NC2CCN(S(C)(=O)=O)CC2)nc1N |  |  | > 100 µM | > 100 µM | > 100 µM |
| CC(C)Nc1ncc2cc(Oc3ccc(F)cc3F)c(=O)n(C)c2n1 |  |  | > 100 µM | > 100 µM | > 100 µM |
| Cn1cc(C2=C(c3cccc(OC[C@H](O)CO)c3)C(=O)NC2=O)c2ccccc21 |  |  | > 100 µM | > 100 µM | > 100 µM |
| CNCCCn1cc(C2=C(c3cn(C)c4ccccc34)C(=O)NC2=O)c2ccccc21 |  |  | > 100 µM | > 100 µM | > 100 µM |
| CN[C@H](C#Cc1c(F)ccc2c1/C(=C/c1[nH]ccc1OC)C(=O)N2)CO |  |  | > 100 µM | 1.77 µM | > 100 µM |
| CC(=O)Nc1ccc2c(c1)C(c1ccccc1Cl)=Nc1c(n[nH]c1C)N2 |  |  | 4.63 µM | 1.55 µM | 1.72 µM |
